Measurements published in EPA's ToxValDB 9.5 (doi:10.2903/j.efsa.2020.6230).
Converted amounts (≈) assume the structure as drawn.

What was measured:
[1] = system: Colinus virginianus; details: acute; oral; mortality
[2] = system: Anas platyrhynchos; details: reproductive
[3] = system: Folsomia candida; details: chronic/long-term; reproduction
[4] = system: Salmo salar; details: acute; duration: 96 hours; mortality
[5] = system: Tagia sp.; details: chronic/long-term; reproduction
[6] = system: Apis mellifera; details: acute, duration: 48 hours, mortality
[7] = system: Oncorhynchus mykiss; details: for LC50: acute, duration: 96 hours, mortality
[8] = system: Oryctolagus sp.; details: developmental; development
[9] = system: Mus musculus; details: acute; oral; mortality
[10] = system: Daphnia magna; details: chronic/long-term; duration: 28 days; reproduction
[11] = system: Aphidius rhopalosiphi; assay: LR50; higher = less toxic; details: not reported; mortality
[12] = system: Rattus norvegicus; details: acute; oral; mortality
[13] = system: Pleurozium sp.; details: acute; duration: 72 hours; growth

Compound | LD50 [1] | NOEL [2] | NOEC [3] | LC50 [4] | NOEC [5] | LD50 ([6]; dermal) | LD50 ([6]; oral, unspecified) | LC50 [7] | NOEC ([7]; chronic/long-term, duration: 95 days, growth) | NOAEL [8] | LD50 [9] | NOEC [10] | LR50 [11] | LD50 [12] | NOEC [13]
O=C1C2CC=CCC2C(=O)N1SC(Cl)(Cl)Cl (configuration not stated) [Captan] | > 2000 mg/kg-day | 74.4 mg/kg-day | 100 mg/kg | 0.0913 µg/mL (≈ 0.304 µM) | 7.3 mg/kg | > 200 µg/piece | > 100 µg/piece | 0.0147 µg/mL (≈ 0.0489 µM) | 0.2 mg/L | 20 mg/kg-day | 3720 mg/kg-day | 0.4 mg/L | > 3200 g/ha |  | 
O=C1NC(=O)C2CC=CCC12 (configuration not stated) [1,2,3,6-Tetrahydrophthalimide] |  |  |  |  |  |  |  | > 120 µg/mL |  |  |  |  |  | ≥ 1470 mg/kg-day | 
NC(=O)C1CC=CCC1C(=O)O (configuration not stated) [6-[Hydroxy(imino)methyl]cyclohex-3-ene-1-carboxylic acid] |  |  |  |  |  |  |  | > 120 µg/mL |  |  |  |  |  |  | 32 mg/L
